23 compounds from patent publication US10202368B2, “CXCR7 receptor modulators” (IDORSIA PHARMACEUTICALS LTD, priority 2014, dated 2019) can be followed below.

The assay concerns the target CXCR7 (Homo sapiens (Human), UniProt P25106). Put plainly: PathHunter CHO-K1 CXCR7 β-arrestin assay (agonistic activity). The format is cell-based. The conditions noted are these: β-arrestin recruitment in PathHunter CHO-K1 CXCR7 β-arrestin cells, 90 minutes at 37° C., geometric mean values. The method, then: The CXCI12 receptor and CXCR7 agonistic activities of the compounds of formula (I) are determined in accordance with the following experimental method.
The assay is using the PathHunter™ CHO-K1 CXCR7 β-arrestin cell line from DiscoverX. The system is based on the Enzyme Fragment Complementation Technology. Two complementing fragments of the β-galactosidase enzyme are expressed within stably transfected cells. The larger portion of β-gal, termed EA for Enzyme Acceptor, is fused to the C-terminus of b-arrestin 2. The smaller fragment, termed ProLink™ tag, is fused to CXCR7 at the C-terminus. Upon activation, b-arrestin is recruited which forces the interaction of ProLink and EA, allowing complementation of the two fragments of b-gal and the formation of a functional enzyme which is capable of hydrolysing the substrate and generating a chemiluminescent signal.
CHO-K1 CXCR7 β-arrestin cells are detached from culture dishes with a cell dissociation buffer (Invitrogen, #13151-014) and collected in growing medium (F12 HAMS 90% (v/v)/FCS 10% (v/v), Penicillin/streptomycin 1% (v/v)). 5000 cells per well (in 20 μl) are seeded in a 384 well plate (white-walled, clear bottom; BD Falcon #353274). The plate is incubated at 37° C./5% CO2 for 24 hours. Medium is then replaced by 20 μl OPTIMEM (Invitrogen #31985) for 3 to 4 hours. Test compounds are dissolved at 10 mM in DMSO and serially diluted in DMSO to 200× of the final concentration for dose response curves. Compounds are then diluted 1:33.3 in HBSS1X. 5 μl/well of HBSS1X/20 mM HEPES/0.2% BSA are added to the assay plate followed by addition of 5 μl/well of diluted compounds. CXCL12 (Peprotech #300-28A) may be used as a reference agonist. The plate is incubated for 90 minutes at 37° C. 12 μl of detection reagent (Path Hunter Detection Kit, DiscoveRx, #93-0001) is transferred to the assay plate and to the plate is incubated for 1 hour at room temperature. Luminescent signal is read in a microplate reader (FLUOstar Optima, bmg). The calculated EC50 values may fluctuate depending on the daily cellular assay performance. Fluctuations of this kind are known to those skilled in the art. Average EC50 values from several measurements are given as geometric mean values.

CXCR7, sequence (P25106 whole entry, the tested form may be a part): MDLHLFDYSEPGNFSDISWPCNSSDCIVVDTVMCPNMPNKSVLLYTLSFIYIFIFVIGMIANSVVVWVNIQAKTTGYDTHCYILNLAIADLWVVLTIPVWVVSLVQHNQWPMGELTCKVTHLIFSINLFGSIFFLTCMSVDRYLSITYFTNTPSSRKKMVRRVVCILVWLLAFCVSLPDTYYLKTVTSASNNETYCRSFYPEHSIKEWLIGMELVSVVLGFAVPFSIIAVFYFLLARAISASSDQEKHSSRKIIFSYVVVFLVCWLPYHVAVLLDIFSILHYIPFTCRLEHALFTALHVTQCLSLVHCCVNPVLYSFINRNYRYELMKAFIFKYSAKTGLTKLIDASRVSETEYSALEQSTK
CXCR7, sequence (P32121 whole entry partner, the tested form may be a part): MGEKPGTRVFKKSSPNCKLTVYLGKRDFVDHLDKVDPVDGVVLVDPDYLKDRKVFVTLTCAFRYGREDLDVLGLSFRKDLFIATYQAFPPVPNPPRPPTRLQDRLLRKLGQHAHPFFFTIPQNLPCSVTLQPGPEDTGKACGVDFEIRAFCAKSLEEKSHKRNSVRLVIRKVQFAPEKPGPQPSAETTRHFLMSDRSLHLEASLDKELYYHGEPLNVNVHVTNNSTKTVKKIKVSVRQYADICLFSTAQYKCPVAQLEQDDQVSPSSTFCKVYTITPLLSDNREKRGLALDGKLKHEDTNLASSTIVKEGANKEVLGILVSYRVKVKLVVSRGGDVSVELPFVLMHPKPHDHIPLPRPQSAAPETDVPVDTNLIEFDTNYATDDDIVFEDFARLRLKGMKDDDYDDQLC

As for `CC(=O)N1CCc2cccc(OCC(=O)N(CCN(C)C)Cc3ccccc3C(F)(F)F)c2CC1` [Example 25, 2-(3-Acetyl-2,3,4,5-tetrahydro-1H-benzo[d]azepin-6-yloxy)-N-(2-dimethylamino-ethyl)-N-(2-trifluoromethyl-benzyl)-acetamide], the 50% effective concentration (EC50) turned out to be 3 nM.

In turn, `CN(C)CCN(Cc1ccccc1C(F)(F)F)C(=O)CNc1cccc2c1CCN(C(=O)C(F)(F)F)CC2` [Example 26, N-(2-Dimethylamino-ethyl)-2-[3-(2,2,2-trifluoro-acetyl)-2,3,4,5-tetrahydro-1H-benzo[d]azepin-6-ylamino]-N-(2-trifluoromethyl-benzyl)-acetamide] registered a 50% effective concentration (EC50) of 4 nM.

In turn, `CN(C)CCN(Cc1ccccc1C(F)(F)F)C(=O)CNc1cccc2c1CCN(CC1CC1)CC2` [Example 27, 2-(3-Cyclopropylmethyl-2,3,4,5-tetrahydro-1H-benzo[d]azepin-6-ylamino)-N-(2-dimethylamino-ethyl)-N-(2-trifluoromethyl-benzyl)-acetamide] yielded an EC50 of 2 nM.

`CN(C)CCN(Cc1ccccc1C(F)(F)F)C(=O)CNc1cccc2c1CCCN(CC1CC1)C2` [Example 28, 2-(2-Cyclopropylmethyl-2,3,4,5-tetrahydro-1H-benzo[c]azepin-6-ylamino)-N-(2-dimethylamino-ethyl)-N-(2-trifluoromethyl-benzyl)-acetamide] returned an EC50 of 3 nM. Against the preceding compound, the EC50 is about 1.5-fold higher.

As for `CC(C)(C)NCCN(Cc1ccccc1C(F)(F)F)C(=O)CNc1cccc2c1C(=O)N(CC1CC1)CCO2` [Example 29, N-(2-tert-Butylamino-ethyl)-2-(4-cyclopropylmethyl-5-oxo-2,3,4,5-tetrahydro-benzo[f][1,4]oxazepin-6-ylamino)-N-(2-trifluoromethyl-benzyl)-acetamide], a half-maximal effect (EC50) was put at 3 nM.

For `CN(C)CCN(Cc1cccc(Cl)c1Cl)C(=O)CNc1cccc2c1C(=O)N(CC1CC1)CCO2` [Example 30, 2-(4-Cyclopropylmethyl-5-oxo-2,3,4,5-tetrahydro-benzo[f][1,4]oxazepin-6-ylamino)-N-(2,3-dichloro-benzyl)-N-(2-dimethylamino-ethyl)-acetamide], it took 7.8 nM to reach a half-maximal effect (EC50). Compared with the last compound, the EC50 is about 2.6-fold higher.

With `CN(C)CCN(Cc1c(Cl)cccc1Cl)C(=O)CNc1cccc2c1C(=O)N(CC1CC1)CCO2` [Example 31, 2-(4-Cyclopropylmethyl-5-oxo-2,3,4,5-tetrahydro-benzo[f][1,4]oxazepin-6-ylamino)-N-(2,6-dichloro-benzyl)-N-(2-dimethylamino-ethyl)-acetamide], the half-maximal effective concentration (EC50) came out at 27 nM.

Compound `CN(C)CCN(Cc1ccccc1Cl)C(=O)CNc1cccc2c1C(=O)N(CC1CC1)CCO2` [Example 32, N-(2-Chloro-benzyl)-2-(4-cyclopropylmethyl-5-oxo-2,3,4,5-tetrahydro-benzo[f][1,4]oxazepin-6-ylamino)-N-(2-dimethylamino-ethyl)-acetamide] returned a half-maximal effective concentration (EC50) of 15 nM.

On to `Cc1cccc(CN(CCN(C)C)C(=O)CNc2cccc3c2C(=O)N(CC2CC2)CCO3)n1` [Example 33, 2-(4-Cyclopropylmethyl-5-oxo-2,3,4,5-tetrahydro-benzo[f][1,4]oxazepin-6-ylamino)-N-(2-dimethylamino-ethyl)-N-(6-methyl-pyridin-2-ylmethyl)-acetamide], for which the response was half-maximal at 24 nM (EC50).

Compound `CC(C)NCCN(Cc1ccccc1C(F)(F)F)C(=O)CNc1cccc2c1C(=O)N(CC1CC1)CCO2` [Example 34, 2-(4-Cyclopropylmethyl-5-oxo-2,3,4,5-tetrahydro-benzo[f][1,4]oxazepin-6-ylamino)-N-(2-isopropylamino-ethyl)-N-(2-trifluoromethyl-benzyl)-acetamide] returned an EC50 of 5 nM.

Take `CC(C)N(CCN(Cc1ccccc1C(F)(F)F)C(=O)CNc1cccc2c1C(=O)N(CC1CC1)CCO2)C(=O)OC(C)(C)C` [Example 35, {2-[[2-(4-Cyclopropylmethyl-5-oxo-2,3,4,5-tetrahydro-benzo[f][1,4]oxazepin-6-ylamino)-acetyl]-(2-trifluoromethyl-benzyl)-amino]-ethyl}-isopropyl-carbamic acid tert-butyl ester]: a half-maximal response (EC50) required 420 nM.

On to `CNCCN(Cc1ccccc1C(F)(F)F)C(=O)CNc1cccc2c1C(=O)N(CC1CC1)CCO2` [Example 36, 2-(4-Cyclopropylmethyl-5-oxo-2,3,4,5-tetrahydro-benzo[f][1,4]oxazepin-6-ylamino)-N-(2-methylamino-ethyl)-N-(2-trifluoromethyl-benzyl)-acetamide], for which the EC50 was found to be 12 nM.

Take `CN(CCN(Cc1ccccc1C(F)(F)F)C(=O)CNc1cccc2c1C(=O)N(CC1CC1)CCO2)C(=O)OC(C)(C)C` [Example 37, {2-[[2-(4-Cyclopropylmethyl-5-oxo-2,3,4,5-tetrahydro-benzo[f][1,4]oxazepin-6-ylamino)-acetyl]-(2-trifluoromethyl-benzyl)-amino]-ethyl}-methyl-carbamic acid tert-butyl ester]: a half-maximal response (EC50) required 410 nM.

On to `CN(C)CCN(Cc1ccccc1C(F)(F)F)C(=O)CNc1cccc2c1C(=O)N(CC1CC1)CCO2` [Example 38, 2-(4-Cyclopropylmethyl-5-oxo-2,3,4,5-tetrahydro-benzo[f][1,4]oxazepin-6-ylamino)-N-(2-dimethylamino-ethyl)-N-(2-trifluoromethyl-benzyl)-acetamide], for which the 50% effective concentration (EC50) came to 4 nM.

`CCN1CCOc2c(NCC(=O)N(CCN(C)C)Cc3ncccc3C)cccc2C1=O` [Example 39, N-(2-Dimethylamino-ethyl)-2-(4-ethyl-5-oxo-2,3,4,5-tetrahydro-benzo[f][1,4]oxazepin-9-ylamino)-N-(3-methyl-pyridin-2-ylmethyl)-acetamide] showed an EC50 of 400 nM.

Consider `CCN1CCOc2c(NCC(=O)N(CCNC(C)(C)C)Cc3ccccc3C(F)(F)F)cccc2C1=O` [Example 40, N-(2-tert-Butylamino-ethyl)-2-(4-ethyl-5-oxo-2,3,4,5-tetrahydro-benzo[f][1,4]oxazepin-9-ylamino)-N-(2-trifluoromethyl-benzyl)-acetamide], for which the midpoint of the response, the EC50, lay at 7 nM.

With `CCN1CCOc2c(NCC(=O)N(CCN(C)C)Cc3ccccc3C(F)(F)F)cccc2C1=O` [Example 41, N-(2-Dimethylamino-ethyl)-2-(4-ethyl-5-oxo-2,3,4,5-tetrahydro-benzo[f][1,4]oxazepin-9-ylamino)-N-(2-trifluoromethyl-benzyl)-acetamide], the concentration giving a half-maximal response (EC50) worked out at 22 nM.

Compound `CN(C)CCN(Cc1ccccc1C(F)(F)F)C(=O)CNc1cccc2c1N(C)CCN(CC1CC1)C2=O` [Example 42, 2-(4-Cyclopropylmethyl-1-methyl-5-oxo-2,3,4,5-tetrahydro-1H-benzo[e][1,4]diazepin-9-ylamino)-N-(2-dimethylamino-ethyl)-N-(2-trifluoromethyl-benzyl)-acetamide] returned an EC50 of 7 nM.

On to `CN1CCN(CC2CC2)C(=O)c2cccc(NCC(=O)N(CCNC(C)(C)C)Cc3ccccc3C(F)(F)F)c21` [Example 43, N-(2-tert-Butylamino-ethyl)-2-(4-cyclopropylmethyl-1-methyl-5-oxo-2,3,4,5-tetrahydro-1H-benzo[e][1,4]diazepin-9-ylamino)-N-(2-trifluoromethyl-benzyl)-acetamide], for which the response was half-maximal at 4 nM (EC50).

`Cc1cccnc1CN(CCN(C)C)C(=O)CNc1cccc2c1N(C)CCN(CC1CC1)C2=O` [Example 44, 2-(4-Cyclopropylmethyl-1-methyl-5-oxo-2,3,4,5-tetrahydro-1H-benzo[e][1,4]diazepin-9-ylamino)-N-(2-dimethylamino-ethyl)-N-(3-methyl-pyridin-2-ylmethyl)-acetamide] gave an EC50 of 130 nM.

`CN(C)CCN(Cc1ncccc1Cl)C(=O)CNc1cccc2c1N(C)CCN(CC1CC1)C2=O` [Example 45, N-(3-Chloro-pyridin-2-ylmethyl)-2-(4-cyclopropylmethyl-1-methyl-5-oxo-2,3,4,5-tetrahydro-1H-benzo[e][1,4]diazepin-9-ylamino)-N-(2-dimethylamino-ethyl)-acetamide] came in with an EC50 of 50 nM.

`CC(C)NCCN(Cc1ccccc1C(F)(F)F)C(=O)CNc1cccc2c1N(C)CCN(CC1CC1)C2=O` [Example 46, 2-(4-Cyclopropylmethyl-1-methyl-5-oxo-2,3,4,5-tetrahydro-1H-benzo[e][1,4]diazepin-9-ylamino)-N-(2-isopropylamino-ethyl)-N-(2-trifluoromethyl-benzyl)-acetamide] came in with a 50% effective concentration (EC50) of 5 nM.

In turn, `CCN1CCN(CC)c2c(NCC(=O)N(CCN3CCOCC3)Cc3ncccc3C(F)(F)F)cccc2C1=O` [Example 47, 2-(1,4-Diethyl-5-oxo-2,3,4,5-tetrahydro-1H-benzo[e][1,4]diazepin-9-ylamino)-N-(2-morpholin-4-yl-ethyl)-N-(3-trifluoromethyl-pyridin-2-ylmethyl)-acetamide] yielded a half-maximal effective concentration (EC50) of 430 nM.
